Among the test systems are CAKI-1 renal; EKVX NSCLC; HOP-62 NSCLC; HOP-92 NSCLC; HT29 colon; OVCAR-8 ovarian; SK-MEL-5 melanoma; SNB-75 CNS; U251 CNS; UACC-62 melanoma.
Holding throughout (experiment): growth of human tumour cells (NCI), 48 h

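Interpolation was linear, between the two tested concentrations surrounding the appropriate level; five concentrations were tested over 48 hours in 96-well plates. GI50 is the concentration that inhibits growth by half. The concentration for full growth arrest is given as TGI.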 Where only a bound is given, the exact number is not on record here.

`Oc1cc2c(cc1C(c1ccc3c(c1)OCO3)N1CCN(C(c3ccc4c(c3)OCO4)c3cc4c(cc3O)OCO4)CC1)OCO2` (stereo not drawn): the TGI stood at 47.9 µM in the experiment with CAKI-1 renal; 98.6 µM in the experiment on EKVX NSCLC; 64.7 µM in the experiment with HOP-62 NSCLC; 78.3 µM with HOP-92 NSCLC; 18.8 µM in the experiment on HT29 colon; 29.9 µM with OVCAR-8 ovarian. The TGI came to 37.9 µM with SK-MEL-5 melanoma, 13.7 µM with SNB-75 CNS, 28.7 µM with U251 CNS and 27.5 µM in the experiment with UACC-62 melanoma.
Consider `Cc1cc(Cl)cc2c1NC(=O)C2(O)CC(=O)c1ccc(F)cc1` (stereo not drawn), for which the TGI in the experiment with CAKI-1 renal, with EKVX NSCLC, in the experiment with HOP-62 NSCLC, in the experiment with HOP-92 NSCLC, in the experiment on HT29 colon and in the experiment with OVCAR-8 ovarian was > 100 µM each time. In addition, the TGI in the experiment on SNB-75 CNS was > 100 µM; in the experiment with U251 CNS, > 100 µM; in the experiment with UACC-62 melanoma, 42 µM.
For the compound `CC1NCCc2c1[nH]c1cc(O)ccc21` (stereo not drawn), the TGI with CAKI-1 renal, in the experiment with EKVX NSCLC, in the experiment on HOP-62 NSCLC, in the experiment on HOP-92 NSCLC, in the experiment with HT29 colon and in the experiment with OVCAR-8 ovarian was > 100 µM each time. Also, the TGI in the experiment with SK-MEL-5 melanoma, with SNB-75 CNS and with UACC-62 melanoma was > 100 µM in each case.
For the compound `CCOC(=O)N1CCc2cc(OC)c(OC)cc2/C1=C/c1ccc(OC)c(OC)c1`, the TGI was > 100 µM in the experiment on EKVX NSCLC; > 100 µM in the experiment on HOP-62 NSCLC; > 100 µM with HOP-92 NSCLC; 98.4 µM with HT29 colon; 44.4 µM in the experiment with SK-MEL-5 melanoma; > 100 µM in the experiment with SNB-75 CNS. Further, the TGI with U251 CNS and in the experiment with UACC-62 melanoma was > 100 µM in each case.
Regarding `C/C(CC(=O)Nc1ccccc1)=N\NC(N)=S`, the TGI with EKVX NSCLC, in the experiment with HOP-62 NSCLC, in the experiment on HOP-92 NSCLC, in the experiment on HT29 colon, with OVCAR-8 ovarian and in the experiment on SK-MEL-5 melanoma was > 100 µM throughout. In addition, the TGI in the experiment with SNB-75 CNS, with U251 CNS and with UACC-62 melanoma was > 100 µM in each case.
`O=C(NCCNC(=O)c1ccc(F)cc1)Nc1ccc(-n2cc(-c3ccncc3)c(-c3ccc(Cl)c(O)c3)n2)cc1`: the GI50 in the experiment on EKVX NSCLC was 1360 nM; in the experiment on HOP-62 NSCLC, 697 nM; with HOP-92 NSCLC, 465 nM; in the experiment on HT29 colon it was 377 nM; in the experiment on OVCAR-8 ovarian, 491 nM; with SK-MEL-5 melanoma it was 280 nM. Besides, the figures for the GI50 with SNB-75 CNS, in the experiment on U251 CNS and with UACC-62 melanoma were 3050 nM, 391 nM and 555 nM, respectively. The TGI with EKVX NSCLC is > 100 µM; in the experiment with HOP-62 NSCLC, 23.1 µM; in the experiment with HOP-92 NSCLC, 5.23 µM; in the experiment with HT29 colon, 1.41 µM; with OVCAR-8 ovarian it was > 100 µM; in the experiment on SK-MEL-5 melanoma it was 1.12 µM. For the same compound, the TGI was > 100 µM in the experiment on SNB-75 CNS, 2.64 µM in the experiment with U251 CNS and 2.32 µM with UACC-62 melanoma.
Take `C=C[Si](C)(C)COC(=O)/C(C#N)=C/C=C/c1ccccc1`: the TGI in the experiment with EKVX NSCLC, with HOP-62 NSCLC, in the experiment on HOP-92 NSCLC, in the experiment on HT29 colon, with OVCAR-8 ovarian and with SK-MEL-5 melanoma was > 100 µM throughout. Also, the TGI is 94 µM in the experiment with SNB-75 CNS, > 100 µM with U251 CNS and > 100 µM with UACC-62 melanoma.
Consider `Cc1ccc(S(=O)(=O)N[C@@H](Cc2ccccc2)C(=O)CCl)cc1`, for which the GI50 in the experiment on CAKI-1 renal was 16700 nM; in the experiment on HOP-92 NSCLC it was 2190 nM; with HT29 colon, 24000 nM; with OVCAR-8 ovarian it was 17800 nM; in the experiment with SNB-75 CNS, 16700 nM; in the experiment with U251 CNS, 9300 nM. The TGI was 34.7 µM in the experiment with CAKI-1 renal; 36 µM with EKVX NSCLC; 39.8 µM with HOP-62 NSCLC; 12 µM in the experiment on HOP-92 NSCLC; > 100 µM with HT29 colon; > 100 µM in the experiment on OVCAR-8 ovarian. The TGI with SK-MEL-5 melanoma was found to be 28.3 µM; in the experiment with SNB-75 CNS, 35.8 µM; with U251 CNS, 24.5 µM.
Regarding `NCCn1cnc2nc(NC(=O)c3ccccc3)[nH]c(=O)c21`, the TGI in the experiment with EKVX NSCLC, in the experiment on HOP-62 NSCLC, in the experiment with HOP-92 NSCLC, with HT29 colon, in the experiment with OVCAR-8 ovarian and in the experiment on SNB-75 CNS was > 100 µM throughout. In addition, in the experiment with U251 CNS, the TGI was > 100 µM.
On to `COC(=O)[C@@H]1[C@H](O)[C@H](C)[C@H](O)[C@H](C)/C=C\C=C(C)C(=O)Nc2c(C)c(OC(C)=O)c3c(c2O)C(=O)C(C)=C2OCOC(=C23)C(C)=C[C@@](C)(O)[C@H](O)[C@@H](C)[C@H]1OC(C)=O`, for which the TGI in the experiment with EKVX NSCLC, in the experiment on HOP-62 NSCLC, in the experiment on HOP-92 NSCLC, in the experiment on HT29 colon, with OVCAR-8 ovarian and with SK-MEL-5 melanoma was > 100 µM in each case. Further, the TGI in the experiment with SNB-75 CNS and in the experiment with U251 CNS was > 100 µM throughout.
For the compound `Cc1ccccc1NC(=O)C(=O)CC(=O)C1CCOC1=O` (stereo not drawn), the TGI in the experiment with CAKI-1 renal, with EKVX NSCLC, with HOP-62 NSCLC, with HOP-92 NSCLC, with OVCAR-8 ovarian and in the experiment with SK-MEL-5 melanoma was > 100 µM throughout. The TGI in the experiment with SNB-75 CNS, in the experiment on U251 CNS and with UACC-62 melanoma was > 100 µM in each case.
Consider `N=C1N=C(N)S/C1=C\c1ccc2ncccc2c1`, for which the GI50 with CAKI-1 renal, in the experiment with HOP-62 NSCLC, with HOP-92 NSCLC, in the experiment on HT29 colon, in the experiment with OVCAR-8 ovarian and in the experiment with SK-MEL-5 melanoma was > 25000 nM throughout. The GI50 is > 16300 nM in the experiment on SNB-75 CNS, > 25000 nM in the experiment on U251 CNS and > 25000 nM with UACC-62 melanoma. In addition, the TGI in the experiment on CAKI-1 renal, in the experiment with HOP-62 NSCLC, with HOP-92 NSCLC, in the experiment on HT29 colon, with OVCAR-8 ovarian and in the experiment on SK-MEL-5 melanoma was > 25 µM throughout. For the same compound, the TGI in the experiment with SNB-75 CNS, in the experiment on U251 CNS and in the experiment on UACC-62 melanoma was > 25 µM in each case.
Consider `COc1cc2oc(-c3cccc(C(=O)Nc4ccc(C)cc4)c3)cc(=O)c2c(OC)c1OC`, for which the GI50 in the experiment on CAKI-1 renal was 315 nM; with HOP-62 NSCLC it was 3680 nM; in the experiment with HOP-92 NSCLC it was 1550 nM; with HT29 colon, 2550 nM; in the experiment with OVCAR-8 ovarian, 2900 nM; with SK-MEL-5 melanoma, 1030 nM. Besides, the GI50 with SNB-75 CNS is 1160 nM; in the experiment with U251 CNS, 3260 nM; in the experiment on UACC-62 melanoma, 2350 nM. The TGI in the experiment on CAKI-1 renal was 3.22 µM; with HOP-62 NSCLC, 28.3 µM; with HOP-92 NSCLC it was 5.46 µM; in the experiment on HT29 colon it was > 100 µM; with OVCAR-8 ovarian, > 100 µM; in the experiment with SK-MEL-5 melanoma, 2.42 µM. For the same compound, the figures for the TGI in the experiment with SNB-75 CNS, with U251 CNS and in the experiment with UACC-62 melanoma were 5.38 µM, > 100 µM and 6.42 µM, respectively.
On to `COC(=O)c1ccc(NC(N)=NCC(C)(C)COc2ccc(C(F)(F)F)cc2)nc1`, for which the GI50 in the experiment on EKVX NSCLC was 1430 nM; in the experiment with HOP-62 NSCLC it was 1670 nM; with HOP-92 NSCLC, 1230 nM; in the experiment with HT29 colon, 1660 nM; in the experiment on SNB-75 CNS, 1570 nM; in the experiment on U251 CNS, 1610 nM. For the same compound, the GI50 in the experiment with UACC-62 melanoma is 1660 nM. Moreover, the TGI came out at 3.41 µM in the experiment with EKVX NSCLC; 3.2 µM with HOP-62 NSCLC; 2.57 µM with HOP-92 NSCLC; 3.21 µM in the experiment with HT29 colon; 3.27 µM in the experiment with SNB-75 CNS; 3.05 µM with U251 CNS. The TGI with UACC-62 melanoma came to 3.1 µM.
As to `O=C(Nc1cc(C(F)(F)F)cc(C(F)(F)F)c1)Nc1ccc(OCc2nnc(-c3ccc(Cl)cc3)o2)c(F)c1`, the GI50 is 2720 nM in the experiment on CAKI-1 renal; 2110 nM in the experiment on HOP-62 NSCLC; 1140 nM with HOP-92 NSCLC; 2700 nM with HT29 colon; 1600 nM in the experiment with OVCAR-8 ovarian; 1510 nM in the experiment on SK-MEL-5 melanoma. In addition, the figures for the GI50 in the experiment on SNB-75 CNS, in the experiment on U251 CNS and in the experiment on UACC-62 melanoma were 1320 nM, 1490 nM and 1790 nM, respectively. Moreover, the TGI in the experiment with CAKI-1 renal is 15.8 µM; in the experiment with HOP-62 NSCLC, 6.12 µM; in the experiment on HOP-92 NSCLC, 4.06 µM; in the experiment on HT29 colon, 10.3 µM; in the experiment with OVCAR-8 ovarian, 5.73 µM; with SK-MEL-5 melanoma, 2.96 µM. Moreover, the TGI in the experiment on SNB-75 CNS was 5.37 µM; with U251 CNS, 3.24 µM; with UACC-62 melanoma, 11.6 µM.
Regarding `CN(C)CCC(/C=C/c1ccccc1)=N\Nc1ccc(Cl)cc1`, the TGI with EKVX NSCLC came to 11.4 µM; in the experiment with HOP-62 NSCLC it was 4.07 µM; with HOP-92 NSCLC, 8.82 µM; in the experiment with HT29 colon, 13.9 µM; with OVCAR-8 ovarian it was 14 µM; in the experiment with SK-MEL-5 melanoma it was 31.5 µM. For the same compound, the TGI was 15.6 µM with SNB-75 CNS, 5.51 µM in the experiment with U251 CNS and 4.95 µM with UACC-62 melanoma.
